According to US7655665B2, “Nitromethylene derivatives and their use” (East China University of Science and Technology, priority 2004, dated 2010):

What was measured:
Nilaparvata lugens = assay: Insecticidal activity against Nilaparvata lugens (planthopper) by spraying; type: in vivo; settings: 500 ppm; for mortality (%) (500 ppm) Nilaparvata lugens: spraying 2 ml, counted after 24 hours; for mortality (%) (500 ppm) Nilaparvata-lugens: spraying 2 ml per tumbler, killed counted after 24 hours
Summary of the method: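 Ten planthoppers per tumbler were introduced 6 hours before spraying with 2 ml of test solution, with clean water as blank control. Each treatment had 3 replicates, and three series were run. Mortality was counted after 24 hours.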

Aphis craccivoral = assay: Insecticidal activity against Aphis craccivoral by immersing (dipping aphids on bean sprout); type: in vivo; settings: 23° C.
Summary of the method: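 Wingless adult A. craccivora feeding on bean sprouts dipped 5 seconds in compound at 500 ug/mL (0.2 mL/L Triton X-100 aqueous), then held at 23 °C. Mortality counted after 24 hours, three replicates, vehicle-only control.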

[1] = 500 ppm, immersing (dipped 5 seconds), counted after 24 hours
[2] = 500 ppm (500 ug/mL dilution), dipped 5 seconds, killed aphis counted after 24 hours

| SMILES | mortality (%) (500 ppm) Nilaparvata lugens (Nilaparvata lugens) | mortality (%) (500 ppm) Aphis (Aphis craccivoral; [1]) | mortality (%) (500 ppm) Nilaparvata-lugens (Nilaparvata lugens) | mortality (%) (500 ppm) Aphis (Aphis craccivoral; [2]) |
| --- | --- | --- | --- | --- |
| O=C(OC1CCC([N+](=O)[O-])=C2N(Cc3cnc(Cl)s3)CCN21)C(Cl)(Cl)Cl (stereo not shown) [Compound 154] | 100 | 93 | – | – |
| O=C(OC1CCC([N+](=O)[O-])=C2N(Cc3cnc(Cl)s3)CCN21)C(F)(F)F (stereo not shown) [Compound 155] | 90 | 48 | – | – |
| CS(=O)(=O)OC1CCC([N+](=O)[O-])=C2N(Cc3cnc(Cl)s3)CCN21 (stereo not shown) [Compound 156] | 92 | 78 | – | – |
| O=[N+]([O-])C1=C2N(Cc3cnc(Cl)s3)CCN2C(OS(=O)(=O)C(F)(F)F)CC1 (stereo not shown) [Compound 157] | 100 | 56 | – | – |
| O=[N+]([O-])C1=C2N(Cc3cnc(Cl)s3)CCN2C(OS(=O)(=O)c2ccccc2)CC1 (stereo not shown) [Compound 158] | 7 | 6 | – | – |
| O=C(OC1CCC([N+](=O)[O-])=C2N(Cc3cnc(Cl)s3)CCN21)c1cccnc1 (stereo not shown) [Compound 159] | 8 | 0 | – | – |
| O=C(OC1CCC([N+](=O)[O-])=C2N(Cc3cnc(Cl)s3)CCN21)c1ccccn1 (stereo not shown) [Compound 160] | 8 | 4 | – | – |
| O=C(OC1CCC([N+](=O)[O-])=C2N(Cc3cnc(Cl)s3)CCN21)c1ccccc1 (stereo not shown) [Compound 161] | 5 | 3 | – | – |
| O=C(OC1CCC([N+](=O)[O-])=C2N(Cc3cnc(Cl)s3)CCN21)c1cc(F)c(Cl)cc1Cl (stereo not shown) [Compound 164] | 78 | 59 | – | – |
| O=C(OC1CCC([N+](=O)[O-])=C2N(Cc3cnc(Cl)s3)CCN21)c1ccc(C(F)(F)F)cc1 (stereo not shown) [Compound 165] | – | – | 100 | 90 |
| O=C(OC1CCC([N+](=O)[O-])=C2N(Cc3cnc(Cl)s3)CCN21)c1cc(F)c(F)cc1F (stereo not shown) [Compound 166] | – | – | 45 | 0 |
| O=C(OC1CCC([N+](=O)[O-])=C2N(Cc3cnc(Cl)s3)CCN21)c1cc(F)c(F)c(F)c1F (stereo not shown) [Compound 167] | – | – | 4 | 12 |
| O=C(OC1CCC([N+](=O)[O-])=C2N(Cc3cnc(Cl)s3)CCN21)c1ccccc1F (stereo not shown) [Compound 168] | – | – | 100 | 56 |
| O=C(OC1CCC([N+](=O)[O-])=C2N(Cc3cnc(Cl)s3)CCN21)c1cc(F)c(F)c([N+](=O)[O-])c1F (stereo not shown) [Compound 169] | – | – | 13 | 2 |
| O=C(OC1CCC([N+](=O)[O-])=C2N(Cc3cnc(Cl)s3)CCN21)c1ccc(Cl)c(Cl)c1 (stereo not shown) [Compound 170] | – | – | 0 | 2 |
| CSC1CCC([N+](=O)[O-])=C2N(Cc3cnc(Cl)s3)CCN21 (stereo not shown) [Compound 171] | – | – | 100 | 97 |
| CCSC1CCC([N+](=O)[O-])=C2N(Cc3cnc(Cl)s3)CCN21 (stereo not shown) [Compound 172] | – | – | 100 | 100 |
| O=[N+]([O-])C1=C2N(Cc3cnc(Cl)s3)CCN2C(SCC(F)(F)F)CC1 (stereo not shown) [Compound 174] | – | – | 100 | 67 |
| CCCSC1CCC([N+](=O)[O-])=C2N(Cc3cnc(Cl)s3)CCN21 (stereo not shown) [Compound 175] | – | – | 100 | 89 |
| CC(C)SC1CCC([N+](=O)[O-])=C2N(Cc3cnc(Cl)s3)CCN21 (stereo not shown) [Compound 176] | – | – | 98 | 78 |
| CCCCSC1CCC([N+](=O)[O-])=C2N(Cc3cnc(Cl)s3)CCN21 (stereo not shown) [Compound 178] | – | – | 12 | 23 |
| CC(C)CSC1CCC([N+](=O)[O-])=C2N(Cc3cnc(Cl)s3)CCN21 (stereo not shown) [Compound 179] | – | – | 56 | 12 |
| CCC(C)SC1CCC([N+](=O)[O-])=C2N(Cc3cnc(Cl)s3)CCN21 (stereo not shown) [Compound 180] | – | – | 78 | 34 |
| CC(C)(C)SC1CCC([N+](=O)[O-])=C2N(Cc3cnc(Cl)s3)CCN21 (stereo not shown) [Compound 181] | – | – | 78 | 45 |

| SMILES | mortality (%) (500 ppm) Nilaparvata lugens (Nilaparvata lugens) | mortality (%) (500 ppm) Aphis (Aphis craccivoral; [1]) | mortality (%) (500 ppm) Nilaparvata-lugens (Nilaparvata lugens) | mortality (%) (500 ppm) Aphis (Aphis craccivoral; [2]) |
| --- | --- | --- | --- | --- |
| CCCCCSC1CCC([N+](=O)[O-])=C2N(Cc3cnc(Cl)s3)CCN21 (stereo not shown) [Compound 182] | – | – | 87 | 67 |
| CC(C)CCSC1CCC([N+](=O)[O-])=C2N(Cc3cnc(Cl)s3)CCN21 (stereo not shown) [Compound 183] | – | – | 34 | 23 |
| CCCC(C)SC1CCC([N+](=O)[O-])=C2N(Cc3cnc(Cl)s3)CCN21 (stereo not shown) [Compound 184] | – | – | 35 | 12 |
| CC(C)(C)CSC1CCC([N+](=O)[O-])=C2N(Cc3cnc(Cl)s3)CCN21 (stereo not shown) [Compound 185] | – | – | 86 | 36 |
| COCCSC1CCC([N+](=O)[O-])=C2N(Cc3cnc(Cl)s3)CCN21 (stereo not shown) [Compound 186] | – | – | 100 | 97 |
| N=C1CCC([N+](=O)[O-])=C2N(Cc3ccc(Cl)nc3)CCN12 [Compound 188] | – | – | 67 | 55 |
| CN=C1CCC([N+](=O)[O-])=C2N(Cc3ccc(Cl)nc3)CCN12 [Compound 189] | – | – | 100 | 100 |
| CCN=C1CCC([N+](=O)[O-])=C2N(Cc3ccc(Cl)nc3)CCN12 [Compound 190] | – | – | 100 | 89 |
| O=[N+]([O-])C1=C2N(Cc3ccc(Cl)nc3)CCN2C(=NCCCl)CC1 [Compound 191] | – | – | 78 | 53 |
| CCCN=C1CCC([N+](=O)[O-])=C2N(Cc3ccc(Cl)nc3)CCN12 [Compound 192] | – | – | 100 | 86 |
| CC(C)N=C1CCC([N+](=O)[O-])=C2N(Cc3ccc(Cl)nc3)CCN12 [Compound 193] | – | – | 98 | 93 |
| CCCCN=C1CCC([N+](=O)[O-])=C2N(Cc3ccc(Cl)nc3)CCN12 [Compound 194] | – | – | 45 | 34 |
| CCCCCN=C1CCC([N+](=O)[O-])=C2N(Cc3ccc(Cl)nc3)CCN12 [Compound 195] | – | – | 78 | 46 |
| CC(C)CCN=C1CCC([N+](=O)[O-])=C2N(Cc3ccc(Cl)nc3)CCN12 [Compound 196] | – | – | 25 | 12 |
| CCCC(C)N=C1CCC([N+](=O)[O-])=C2N(Cc3ccc(Cl)nc3)CCN12 (stereo not shown) [Compound 197] | – | – | 56 | 8 |
| CC(C)(C)CN=C1CCC([N+](=O)[O-])=C2N(Cc3ccc(Cl)nc3)CCN12 [Compound 198] | – | – | 89 | 39 |
| COCCN=C1CCC([N+](=O)[O-])=C2N(Cc3ccc(Cl)nc3)CCN12 [Compound 199] | – | – | 36 | 16 |
| CCOCCN=C1CCC([N+](=O)[O-])=C2N(Cc3ccc(Cl)nc3)CCN12 [Compound 200] | – | – | 78 | 45 |
| N=C1CCC([N+](=O)[O-])=C2N(Cc3ccc(Cl)nc3)CCCN12 [Compound 201] | – | – | 55 | 54 |
| CN=C1CCC([N+](=O)[O-])=C2N(Cc3ccc(Cl)nc3)CCCN12 [Compound 202] | – | – | 98 | 89 |
| CCN=C1CCC([N+](=O)[O-])=C2N(Cc3ccc(Cl)nc3)CCCN12 [Compound 203] | – | – | 100 | 92 |
| O=[N+]([O-])C1=C2N(Cc3ccc(Cl)nc3)CCCN2C(=NCCCl)CC1 [Compound 204] | – | – | 78 | 46 |
| CCCN=C1CCC([N+](=O)[O-])=C2N(Cc3ccc(Cl)nc3)CCCN12 [Compound 205] | – | – | 100 | 35 |
